Source: PubChem BioAssay AID330 (DTP/NCI, 2004)
Values joined by “and” are separate entries in the source; they are usually repeats but may differ in a detail not shown here. Equal entries are not always repeated. Inconclusive results and toxic doses are left out.

System: P388 leukemia ip, CD2F1 mice, survival T/C
Experiment: NCI In Vivo Anticancer Drug Screen. Data for tumor model P388 Leukemia (intraperitoneal) in CD2F1 (CDF1) mice
Conditions: endpoint: median survival time, higher = longer survival
How it was run: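 Mice carrying the transplanted tumor received test compound or vehicle. Survival was recorded in each group, and the value is the treated-group measurement divided by that of the vehicle-treated control group.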

[1] = dose: 12.5 mg/kg/injection, schedule: Q01DX009 (ip), vehicle: saline with Tween-80
[2] = dose: 25.0 mg/kg/injection, schedule: Q01DX005 (ip), vehicle: saline with Tween-80
[3] = dose: 25.0 mg/kg/injection, schedule: Q01DX009 (ip), vehicle: saline with Tween-80
[4] = dose: 60.0 mg/kg/injection, schedule: Q01DX005 (ip), vehicle: saline with Tween-80
[5] = dose: 100.0 mg/kg/injection, schedule: Q01DX005 (ip), vehicle: saline with Tween-80
[6] = dose: 50.0 mg/kg/injection, schedule: Q01DX005 (ip), vehicle: Klucel (hydroxypropylcellulose) (HPC)
[7] = dose: 100.0 mg/kg/injection, schedule: Q01DX005 (ip), vehicle: Klucel (hydroxypropylcellulose) (HPC)
[8] = dose: 200.0 mg/kg/injection, schedule: Q01DX005 (ip), vehicle: Klucel (hydroxypropylcellulose) (HPC)
[9] = dose: 12.5 mg/kg/injection, schedule: Q01DX009 (ip), vehicle: Klucel (hydroxypropylcellulose) (HPC)
[10] = dose: 50.0 mg/kg/injection, schedule: Q01DX009 (ip), vehicle: Klucel (hydroxypropylcellulose) (HPC)
[11] = dose: 100.0 mg/kg/injection, schedule: Q01DX009 (ip), vehicle: Klucel (hydroxypropylcellulose) (HPC)
[12] = dose: 200.0 mg/kg/injection, schedule: Q01DX009 (ip), vehicle: Klucel (hydroxypropylcellulose) (HPC)

O=[N+]([O-])c1ccc([I+]c2ccccc2)cc1
T/C [1]: 154 % of control
T/C [2]: 120 % of control and 124 % of control
T/C [3]: 153 % of control
T/C (dose: 50.0 mg/kg/injection, schedule: Q01DX009 (ip), vehicle: saline with Tween-80): 153 % of control
T/C [4]: 98 % of control
T/C [5]: 88 % of control

CN=C(c1ccc(NC(=O)c2ccc(C(=O)Nc3ccc(C(=NC)N4CCCC4)cc3)cc2)cc1)N1CCCC1
T/C (dose: 0.39 mg/kg/injection, schedule: Q01DX005 (ip), vehicle: Klucel (hydroxypropylcellulose) (HPC)): 99 % of control
T/C (dose: 0.78 mg/kg/injection, schedule: Q01DX005 (ip), vehicle: Klucel (hydroxypropylcellulose) (HPC)): 93 % of control
T/C (dose: 1.56 mg/kg/injection, schedule: Q01DX005 (ip), vehicle: Klucel (hydroxypropylcellulose) (HPC)): 94 % of control
T/C (dose: 3.12 mg/kg/injection, schedule: Q01DX005 (ip), vehicle: Klucel (hydroxypropylcellulose) (HPC)): 97 % of control

CCN(CC)CCOC(=O)Cc1cc(C)cc2c(=O)cc(-c3ccccc3)oc12
T/C [6]: 97 % of control
T/C [7]: 102 % of control
T/C [8]: 101 % of control

ClCCN(CCCl)c1ccc(/C=N/Nc2c3c(nc4ccccc24)CCCC3)cc1
T/C (dose: 0.39 mg/kg/injection, schedule: Q01DX009 (ip), vehicle: Klucel (hydroxypropylcellulose) (HPC)): 95 % of control
T/C (dose: 0.78 mg/kg/injection, schedule: Q01DX009 (ip), vehicle: Klucel (hydroxypropylcellulose) (HPC)): 108 % of control
T/C (dose: 1.56 mg/kg/injection, schedule: Q01DX009 (ip), vehicle: Klucel (hydroxypropylcellulose) (HPC)): 95 % of control
T/C [9]: 90 % of control

Cc1ccc(S(=O)(=O)C(C#N)CCC(=O)c2ccc(Cl)cc2)cc1 (configuration not stated)
T/C [6]: 107 % of control
T/C [7]: 106 % of control
T/C [8]: 105 % of control

Cc1cc(C(=O)N/N=C/c2ccccc2O)c2cc(Br)ccc2n1
T/C [1]: 88 % of control
T/C [3]: 92 % of control
T/C (dose: 100.0 mg/kg/injection, schedule: Q01DX009 (ip), vehicle: saline with Tween-80): 98 % of control
T/C (dose: 200.0 mg/kg/injection, schedule: Q01DX009 (ip), vehicle: saline with Tween-80): 97 % of control

NC(CSSCC(N)C(=O)O)C(=O)O (configuration not stated)
T/C [10]: 105 % of control
T/C [11]: 105 % of control
T/C [12]: 106 % of control

CCn1c(=O)c2c(ncn2C)n(C)c1=O
T/C (dose: 6.25 mg/kg/injection, schedule: Q01DX009 (ip), vehicle: saline): 100 % of control
T/C (dose: 12.5 mg/kg/injection, schedule: Q01DX009 (ip), vehicle: saline): 101 % of control
T/C (dose: 25.0 mg/kg/injection, schedule: Q01DX009 (ip), vehicle: saline): 100 % of control
T/C (dose: 50.0 mg/kg/injection, schedule: Q01DX009 (ip), vehicle: saline): 100 % of control

N/C(=N\N=C\c1cc(Br)cc(Br)c1O)N/N=C/c1cc(Br)cc(Br)c1O
T/C (dose: 12.5 mg/kg/injection, schedule: Q01DX009 (ip), vehicle: distilled water + Tween-80): 88 % of control
T/C (dose: 25.0 mg/kg/injection, schedule: Q01DX009 (ip), vehicle: distilled water + Tween-80): 93 % of control
T/C (dose: 50.0 mg/kg/injection, schedule: Q01DX009 (ip), vehicle: distilled water + Tween-80): 90 % of control
T/C (dose: 200.0 mg/kg/injection, schedule: Q01DX009 (ip), vehicle: distilled water + Tween-80): 98 % of control

CCN(CC)Cc1cc(Nc2nc(/C=C/c3ccccc3)nc3ccccc23)ccc1O
T/C (dose: 50.0 mg/kg/injection, schedule: Q01DX009 (ip), vehicle: distilled water + alcohol): 97 % of control
T/C (dose: 100.0 mg/kg/injection, schedule: Q01DX009 (ip), vehicle: distilled water + alcohol): 100 % of control
T/C (dose: 200.0 mg/kg/injection, schedule: Q01DX009 (ip), vehicle: distilled water + alcohol): 98 % of control

CC1(C)CCCC(C)(C)N1CC#CCON1C(=O)c2ccccc2C1=O
T/C (dose: 100.0 mg/kg/injection, schedule: Q04DX002 (ip), vehicle: Klucel (hydroxypropylcellulose) (HPC)): 102 % of control
T/C (dose: 200.0 mg/kg/injection, schedule: Q04DX002 (ip), vehicle: Klucel (hydroxypropylcellulose) (HPC)): 96 % of control
T/C (dose: 400.0 mg/kg/injection, schedule: Q04DX002 (ip), vehicle: Klucel (hydroxypropylcellulose) (HPC)): 105 % of control

CC(C)(C)N1C(=O)C(c2ccccc2)(c2ccccc2)C1/C=C/c1ccccc1 (configuration not stated)
T/C [6]: 93 % of control
T/C [7]: 90 % of control

CC(=O)NC(CC(C)C)C(=O)NC(CC(C)C)C(=O)NC(C=O)CCCN=C(N)N (configuration not stated)
T/C (dose: 100.0 mg/kg/injection, schedule: Q01DX001 (ip), vehicle: saline): 106 % of control
T/C (dose: 200.0 mg/kg/injection, schedule: Q01DX001 (ip), vehicle: saline): 105 % of control

Clc1ccc(SSc2ccc(Cl)cc2)cc1
T/C (dose: 12.5 mg/kg/injection, schedule: Q01DX009 (ip), vehicle: gum acacia): 106 % of control
T/C (dose: 25.0 mg/kg/injection, schedule: Q01DX009 (ip), vehicle: gum acacia): 106 % of control
T/C (dose: 50.0 mg/kg/injection, schedule: Q01DX009 (ip), vehicle: gum acacia): 114 % of control

CON1C(=O)C(c2cccs2)=C2SCC=C21
T/C (dose: 15.0 mg/kg/injection, schedule: Q01DX005 (ip), vehicle: saline with Tween-80): 107 % of control
T/C (dose: 30.0 mg/kg/injection, schedule: Q01DX005 (ip), vehicle: saline with Tween-80): 112 % of control
T/C [4]: 112 % of control and 114 % of control
T/C (dose: 120.0 mg/kg/injection, schedule: Q01DX005 (ip), vehicle: saline with Tween-80): 112 % of control

Oc1cc(O)c(-c2c(O)cc(O)cc2O)c(O)c1 (tested in a mixture with another compound)
T/C (dose: 1.56 mg/kg/injection, schedule: Q01DX005 (ip), vehicle: saline): 97 % of control
T/C (dose: 3.12 mg/kg/injection, schedule: Q01DX005 (ip), vehicle: saline): 106 % of control
T/C (dose: 6.25 mg/kg/injection, schedule: Q01DX005 (ip), vehicle: saline): 111 % of control
T/C (dose: 12.5 mg/kg/injection, schedule: Q01DX005 (ip), vehicle: saline): 101 % of control
T/C (dose: 25.0 mg/kg/injection, schedule: Q01DX005 (ip), vehicle: saline): 96 % of control
T/C (dose: 50.0 mg/kg/injection, schedule: Q01DX005 (ip), vehicle: saline): 108 % of control

Cc1cc(C)c(Cn2c(=O)[nH][nH]c2=O)cc1Cn1c(=O)[nH][nH]c1=O
T/C [10]: 107 % of control
T/C [11]: 100 % of control
T/C [12]: 100 % of control

CCCCOS(=O)(=O)c1ccc([N+](C)(C)C)cc1
T/C [9]: 100 % of control
T/C (dose: 25.0 mg/kg/injection, schedule: Q01DX009 (ip), vehicle: Klucel (hydroxypropylcellulose) (HPC)): 102 % of control
T/C [10]: 104 % of control

CCC/C(=N\NC(=S)N1CC2CCC(CC2)C1)c1ccccn1
T/C (dose: 6.25 mg/kg/injection, schedule: Q01DX005 (ip), vehicle: saline with Tween-80): 104 % of control and 110 % of control
T/C (dose: 12.5 mg/kg/injection, schedule: Q01DX005 (ip), vehicle: saline with Tween-80): 113 % of control and 116 % of control
T/C [2]: 120 % of control

Cc1c2oc3c(C)ccc(C(=O)NC(C(=O)NC(C(=O)N(C)C)C(C)C)C(C)O)c3nc-2c(C(=O)NC(C(=O)NC(C(=O)N(C)C)C(C)C)C(C)O)c(N)c1=O (configuration not stated)
T/C (dose: 0.05 mg/kg/injection, schedule: Q01DX009 (ip), vehicle: water): 101 % of control
T/C (dose: 0.1 mg/kg/injection, schedule: Q01DX009 (ip), vehicle: water): 100 % of control
T/C (dose: 0.2 mg/kg/injection, schedule: Q01DX009 (ip), vehicle: water): 100 % of control
T/C (dose: 0.4 mg/kg/injection, schedule: Q01DX009 (ip), vehicle: water): 108 % of control
T/C (dose: 0.8 mg/kg/injection, schedule: Q01DX009 (ip), vehicle: water): 110 % of control
T/C (dose: 1.6 mg/kg/injection, schedule: Q01DX009 (ip), vehicle: water): 99 % of control and 106 % of control
T/C (dose: 3.2 mg/kg/injection, schedule: Q01DX009 (ip), vehicle: water): 101 % of control
T/C (dose: 6.4 mg/kg/injection, schedule: Q01DX009 (ip), vehicle: water): 101 % of control
T/C (dose: 12.8 mg/kg/injection, schedule: Q01DX009 (ip), vehicle: water): 106 % of control

COc1nc(N(CCO)c2ccccc2)nc(N(CCO)c2ccccc2)n1
T/C (dose: 50.0 mg/kg/injection, schedule: Q01DX005 (ip), vehicle: saline with Tween-80): 96 % of control
T/C [5]: 93 % of control
T/C (dose: 200.0 mg/kg/injection, schedule: Q01DX005 (ip), vehicle: saline with Tween-80): 92 % of control

COc1ccccc1P(C)(=O)c1ccccc1 (configuration not stated)
T/C [6]: 102 % of control
T/C [7]: 103 % of control
T/C [8]: 98 % of control
